Reference: patent US12138252B2, “Multikinase inhibitors of VEGF and TGF beta and uses thereof” (AIVIVA BIOPHARMA, INC., priority 2017, dated 2024)

How the values were obtained:
rabbit ear wound = experiment: Histopathology of rabbit ear wound (neovascularization, fibrosis, re-epithelialization); assay type: in vivo, New Zealand white rabbits; design: key to Total Score: aggregated total of severity grades for microscopic findings; key to Neovascularization / Re-epithelialization: five-step severity grade (minimal, mild, moderate, marked, severe); settings: intradermal 1%; for average total score of test wounds lower than untreated wounds by: difference to untreated control; for Total Score / Fibrosis/Collagen / Neovascularization / Re-epithelialization: treated mean, Day 43; for Total Score: aggregation of microscopic findings; for Fibrosis/Collagen / Neovascularization / Re-epithelialization: histology severity grade; for angiogenesis / neovascularization compared with untreated wounds (words) / fibrosis compared with untreated wounds (words): histopathology; for scar formation compared with control sites: overall
Experimental: (§1) The objective of this study was to examine the effect of test compounds on wound healing and TGF beta expression after dermal injury in a rabbit ear hypertrophic scar model.
(§2) In New Zealand white rabbits, maintained under a surgical plane of anesthesia, trauma stimulation of the skin on the ventral surface of both ears is initiated on Day 1. Trauma sites are evaluated on Days 8, 15, 22, 29, 36, and 43. On days 15 and 29, each site is dosed with test compounds (e.g., 1% w/w, 100 μl) by intradermal or intralesional injections.
At necropsy, each treatment site was harvested and preserved for hematoxylin and […] and Mason's trichrome stainings. Each lesion was examined histologically and graded for neovascularization, fibrosis and re-epithelialization using a five-step/severity grading system (minimal, mild, moderate, marked, and severe). The average total score is an aggregation of these microscopic findings relating to an inflammatory response.

[1] = tested on: LL37-induced inflammation; experiment: LL37-induced dermal inflammation model in mice, histopathology and CD4/CD8 immunostaining; assay type: in vivo; settings: intradermal LL37 induction, single intradermal injection 1.6 mg, FIG. 2
Experimental: (§3) In our study, mice were injected subcutaneously with 40 μL of LL-37 (3.3 mg/mL) to induce inflammatory reactions. Immediately following the LL-37 injection, axitinib, nintedanib, and lenvatinib were individually administered as a single intradermal injection (1.6 mg). LL-37 injection was repeated every 12 hours for a total of 4 injections. Endotoxin-free water and dexamethasone (3 mg/kg by intraperitoneal injection, twice), respectively, were used as negative and positive control groups.
At 48 hours after the initial LL-37 injection, the dorsal skin was photographed, and the severity of skin lesions were scored for redness and measured for areas of involvement.
(§4) Mice were then anaesthetized, and tissue samples of lesion sites were excised and fixed for H&E stainings and immunohistochemical analysis. Markers for inflammation (CD4 and CD8) were determined using specific antibodies. TGF beta levels are measured by mRNA expression using qPCR.
The tissue samples were analyzed for inflammation characteristics. Histopathology endpoints included inflammation, and CD4+ and CD8+ T-lymphocyte immunostaining. For inflammation scores, tissues were examined histologically and scored for inflammatory cell infiltrate.

TGF beta1 mRNA = TGF beta1 mRNA expression (qRT-PCR) in rabbit ear hypertrophic scar model; assay type: in vivo, New Zealand white rabbits; settings: 1% w/w 100 μl intradermal on days 15 and 29, Day 43, FIG. 6
Experimental: as §1, §2
Animals are euthanized on Day 43, and the trauma sites are harvested and frozen for TGF beta analysis using quantitative RT-PCR (qRT-PCR) (e.g., A. K. Johnson et al., Dev. Comp. Immunol., 2006; 30(5): 473-84). TGF beta1 mRNA expression levels in treated trauma samples are compared to the expression level in the untreated trauma sample.

TGFb1 mRNA = TGFb1 mRNA expression (qPCR) in skin of mice after LL-37 challenge; assay type: in vivo; settings: LL37 induced, single intradermal injection 1.6 mg, FIG. 1
Experimental: as §3, §4

TGF-beta 1 = experiment: Dermal TGFb1 levels (ELISA) after linear incisional wound in minipigs; assay type: in vivo, Gottingen Minipigs; settings: minipig incisional wound, approximately 16 mg intradermal once, biopsies days 4, 7, 9, ELISA, FIG. 5
Source text: The purpose of this study was to evaluate the topical effects of axitinib, nintedanib, sorafenib and lenvatinib when administered via intradermal injection to the dorsal skin along linear incisions of minipigs. Linear incisional wound was made to elicit inflammatory and wound healing process in the skin. After dosing, animals were observed postdose for 9 days to assess the levels of TGFb1 expressions in the skin.
Three male Gottingen Minipigs® dosed once via intradermal injection along the edges of each of the linear incision wound sites for each animal (wounds on the dorsum, perpendicular to the spine, approximately 3 cm in length and 3 cm distance from the spine). Each incisional wound received approximately 16 mg of the test compound intradermally once along both sides of the linear wound.
On days of 4, 7, and 9 post-dosing, one 4 mm dermal punch biopsy was collected for each incisional wound and processed for TGF-beta 1 analysis with ELISA, using a commercial kit (e.g., the kit from Thermo Fisher or other vendors).

| SMILES | average total score of test wounds lower than untreated wounds by (rabbit ear wound) | Total Score (rabbit ear wound) | Fibrosis/Collagen (rabbit ear wound) | Neovascularization (rabbit ear wound) | Re-epithelialization (rabbit ear wound) | inflammation score (inflammatory cell infiltrate) [1] | mean folds of TGF beta mRNA expression vs untreated wound sample (TGF beta1 mRNA) | TGFb1 mRNA expression relative to LL37 alone (without treatment) (TGFb1 mRNA; 48 hours) | TGFb-1 mRNA expression among all treatment groups (TGFb1 mRNA) | suppression of TGF beta 1 expression in skin (TGF-beta 1) | angiogenesis / neovascularization compared with untreated wounds (words) (rabbit ear wound) | fibrosis compared with untreated wounds (words) (rabbit ear wound) | angiogenesis / neovascularization compared with untreated wounds (words) (rabbit ear wound; listed as Nintedanib) | fibrosis compared with untreated wounds (words) (rabbit ear wound; listed as Nintedanib) | scar formation compared with control sites (rabbit ear wound) | angiogenesis / neovascularization compared with untreated wounds (words) (rabbit ear wound; listed as Sorafenib) |
| --- | --- | --- | --- | --- | --- | --- | --- | --- | --- | --- | --- | --- | --- | --- | --- | --- |
| CNC(=O)c1ccccc1Sc1ccc2c(/C=C/c3ccccn3)n[nH]c2c1 [axitinib] | 1.4 | 4.6 | 3.3 | 1 | 0.3 |  |  |  |  |  |  |  |  |  |  |  |
| COc1cc2nccc(Oc3ccc(NC(=O)NC4CC4)c(Cl)c3)c2cc1C(N)=O [lenvatinib] |  |  |  |  |  | prominent reductions | lower than the expression level in the untreated wound sample | 79% | lowest TGFb-1 mRNA expression | very effective |  |  |  |  |  |  |
| COC(=O)c1ccc2c(c1)NC(=O)/C2=C(\Nc1ccc(N(C)C(=O)CN2CCN(C)CC2)cc1)c1ccccc1 [nintedanib] | 1.5 | 4.5 | 3 | 1 | 0.5 | prominent reductions | lower than the expression level in the untreated wound sample |  |  | very effective | decreased angiogenesis | decreased angiogenesis and fibrosis | much less neovascularization | about the same fibrosis | less scar formation |  |
| CNC(=O)c1cc(Oc2ccc(NC(=O)Nc3ccc(Cl)c(C(F)(F)F)c3)cc2)ccn1 [sorafenib] |  | 5.8 | 2.5 | 3 | 0.3 |  | lower than the expression level in the untreated wound sample |  |  | not as effective | do not show any reduction in angiogenesis | similar, or increased fibrosis |  |  | does not appear to have reduced scar formation | slightly increased neovascularization |
